This is an account of results in patent publication US20140045823A1 (Neurocrine Biosciences, Inc., priority 2012, published 2014).

The target of this assay is T1, human GPR119 (Homo sapiens, UniProt Q8TDV5).
T1 construct: expression vector for human GPR119 cDNA (Acc. No. NP_848566); expressed in transfected cells; Min-6/hGPR119
T1 sequence (Q8TDV5 1-335): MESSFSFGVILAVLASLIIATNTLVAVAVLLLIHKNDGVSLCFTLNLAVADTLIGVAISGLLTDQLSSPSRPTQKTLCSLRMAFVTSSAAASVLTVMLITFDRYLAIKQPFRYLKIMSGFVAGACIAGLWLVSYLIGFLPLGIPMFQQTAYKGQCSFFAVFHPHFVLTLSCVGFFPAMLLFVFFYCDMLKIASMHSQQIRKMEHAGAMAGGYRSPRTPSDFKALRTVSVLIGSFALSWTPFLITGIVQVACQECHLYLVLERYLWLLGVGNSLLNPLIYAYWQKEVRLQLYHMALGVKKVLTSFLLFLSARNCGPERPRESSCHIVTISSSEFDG
The experiment in a line: AlphaScreen cAMP assay in MIN6 cells stably transfected with human GPR119. The conditions noted are these: Min-6/hGPR119 cells, 45 min at room temperature. Type of assay: cell-based. In short, it runs like this: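 cAMP accumulation quantified by AlphaScreen after 45 min compound stimulation at about 20 °C. Stimulation buffer: pH 7.4 HEPES saline with 0.5 mM IBMX, 0.1% BSA, 1% DMSO final. Cells: MIN6 stably transfected with human GPR119, 10000/well, cultured 24 h beforehand.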
With `CC(C)(C)OC(=O)N1CCC(N(C(=O)c2cnc(-c3ccc(C(=O)NC4CCOCC4)cc3F)nc2)C2CC2)CC1` [Example 145, 4-(Cyclopropyl-{2-[2-fluoro-4-(tetrahydro-pyran-4-ylcarbamoyl)-phenyl]-pyrimidine-5-carbonyl}-amino)-piperidine-1-carboxylic acid tert-buyl ester], the EC50 was found to be 1000 nM.

In turn, `CC(C)(C)OC(=O)N1CCC(N(C(=O)c2cnc(-c3ccc(C(=O)NCC4CCCO4)c(F)c3)nc2)C2CC2)CC1` (centres unmarked) [Example 146, 4-[Cyclopropyl-(2-{3-fluoro-4-[(tetrahydro-furan-2-ylmethyl)-carbamoyl]-phenyl}-pyrimidine-5-carbonyl)-amino]-piperidine-1-carboxylic acid tert-butyl ester] returned a concentration for a half-maximal effect (EC50) of 64 nM.

`CC(C)(C)OC(=O)N1CCC(N(C(=O)c2cnc(-c3ccc(C(=O)N4CC(F)(F)C4)cc3F)nc2)C2CC2)CC1` [Example 147, 4-(Cyclopropyl-{2-[4-(3,3-difluoro-azetidine-1-carbonyl)-2-fluoro-phenyl]-pyrimidine-5-carbonyl}-amino)-piperidine-1-carboxylic acid tert-butyl ester] came in with an EC50 of 159 nM.

For `CN(CC1CCOC1)C(=O)c1ccc(-c2ncc(C(=O)N(C3CC3)C3CCN(C(=O)OC(C)(C)C)CC3)cn2)c(F)c1` (centres unmarked) [Example 148, 4-[Cyclopropyl-(2-{2-fluoro-4-[methyl-(tetrahydro-furan-3-ylmethyl)-carbamoyl]-phenyl}-pyrimidine-5-carbonyl)-amino]-piperidine-1-carboxylic acid tert-butyl ester], the response was half-maximal at 395 nM (EC50).

For the molecule `COCC1CCCCN1C(=O)c1ccc(-c2ncc(C(=O)N(C3CC3)C3CCN(C(=O)OC(C)(C)C)CC3)cn2)cc1F` (centres unmarked) [Example 149, 4-(Cyclopropyl-{2-[3-fluoro-4-(2-methoxymethyl-piperidine-1-carbonyl)-phenyl]-pyrimidine-5-carbonyl}-amino)-piperidine-1-carboxylic acid tert-butyl ester], the EC50 came to 297 nM.

`CC(O)c1cccc(NC(=O)c2ccc(-c3ncc(C(=O)N(C4CC4)C4CCN(C(=O)OC(C)(C)C)CC4)cn3)cc2F)c1` (centres unmarked) [Example 150, 4-[Cyclopropyl-(2-{3-fluoro-4-[3-(1-hydroxy-ethyl)-phenylcarbamoyl]-phenyl}-pyrimidine-5-carbonyl)-amino]-piperidine-1-carboxylic acid tert-butyl ester] came in with a concentration giving a half-maximal response (EC50) of 238 nM.

The molecule `CC(C)(C)OC(=O)N1CCC(N(C(=O)c2cnc(-c3ccc(C(=O)NCc4cocn4)c(F)c3)nc2)C2CC2)CC1` [Example 151, 4-[Cyclopropyl-(2-{3-fluoro-4-[(oxazol-4-ylmethyl)-carbamoyl]-phenyl}-pyrimidine-5-carbonyl)-amino]-piperidine-1-carboxylic acid tert-butyl ester] came in with an EC50 of 123 nM.

On to `CC(C)(C)OC(=O)N1CCC(N(C(=O)c2cnc(-c3ccc(C(=O)NCC4CCCCO4)c(F)c3)nc2)C2CC2)CC1` (centres unmarked) [Example 152, 4-[Cyclopropyl-(2-{3-fluoro-4-[(tetrahydro-pyran-2-ylmethyl)-carbamoyl]-phenyl}-pyrimidine-5-carbonyl)-amino]-piperidine-1-carboxylic acid tert-butyl ester], for which the half-maximal effective concentration (EC50) turned out to be 109 nM.

The molecule `CC(C)(C)OC(=O)N1CCC(N(C(=O)c2cnc(-c3ccc(C(=O)Nc4ccccc4)c(F)c3)nc2)C2CC2)CC1` [Example 153, 4-{Cyclopropyl-[2-(3-fluoro-4-phenylcarbamoyl-phenyl)-pyrimidine-5-carbonyl]-amino}-piperidine-1-carboxylic acid tert-butyl ester] showed a concentration giving a half-maximal response (EC50) of 109 nM.

Take `CC(C)(O)CNC(=O)c1ccc(-c2ncc(C(=O)N(C3CC3)C3CCN(C(=O)OC(C)(C)C)CC3)cn2)cc1F` [Example 154, 4-(Cyclopropyl-{2-[3-fluoro-4-(2-hydroxy-2-methyl-propylcarbamoyl)-phenyl]-pyrimidine-5-carbonyl}-amino)-piperidine-1-carboxylic acid tert-butyl ester]: the 50% effective concentration (EC50) was 508 nM.

Regarding `CC(C)(C)OC(=O)N1CCC(N(C(=O)c2cnc(-c3ccc(C(=O)N4CCOCC4)c(F)c3)nc2)C2CC2)CC1` [Example 155, 4-(Cyclopropyl-{2-[3-fluoro-4-(morpholine-4-carbonyl)-phenyl]-pyrimidine-5-carbonyl}-amino)-piperidine-1-carboxylic acid tert-butyl ester], the midpoint of the response, the EC50, lay at 448 nM.

The molecule `COCc1cccc(NC(=O)c2ccc(-c3ncc(C(=O)N(C4CC4)C4CCN(C(=O)OC(C)(C)C)CC4)cn3)cc2F)c1` [Example 156, 4-(Cyclopropyl-{2-[3-fluoro-4-(3-methoxymethyl-phenylcarbamoyl)-phenyl]-pyrimidine-5-carbonyl}-amino)-piperidine-1-carboxylic acid tert-butyl ester] yielded an EC50 of 114 nM.

Molecule `COC(C)CN(C)C(=O)c1ccc(-c2ncc(C(=O)N(C3CC3)C3CCN(C(=O)OC(C)(C)C)CC3)cn2)c(F)c1` (centres unmarked) [Example 157, 4-[Cyclopropyl-(2-{2-fluoro-4-[(2-methoxy-propyl)-methyl-carbamoyl]-phenyl}-pyrimidine-5-carbonyl)-amino]-piperidine-1-carboxylic acid tert-butyl ester] had an EC50 of 401 nM.

`CN(CC1CCOCC1)C(=O)c1ccc(-c2ncc(C(=O)N(C3CC3)C3CCN(C(=O)OC(C)(C)C)CC3)cn2)cc1F` [Example 158, 4-[Cyclopropyl-(2-{3-fluoro-4-[methyl-(tetrahydro-pyran-4-ylmethyl)-carbamoyl]-phenyl}-pyrimidine-5-carbonyl)-amino]-piperidine-1-carboxylic acid tert-butyl ester]: a half-maximal effect (EC50) was put at 359 nM.

In turn, `COc1ccc(NC(=O)c2ccc(-c3ncc(C(=O)N(C4CC4)C4CCN(C(=O)OC(C)(C)C)CC4)cn3)c(F)c2)cn1` [Example 159, 4-(Cyclopropyl-{2-[2-fluoro-4-(6-methoxy-pyridin-3-ylcarbamoyl)-phenyl]-pyrimidine-5-carbonyl}-amino)-piperidine-1-carboxylic acid tert-butyl ester] yielded an EC50 of 303 nM.

On to `COCCN(C)C(=O)c1ccc(-c2ncc(C(=O)N(C3CC3)C3CCN(C(=O)OC(C)(C)C)CC3)cn2)cc1F` [Example 160, 4-[Cyclopropyl-(2-{3-fluoro-4-[(2-methoxy-ethyl)-methyl-carbamoyl]-phenyl}-pyrimidine-5-carbonyl)-amino]-piperidine-1-carboxylic acid tert-butyl ester], for which the 50% effective concentration (EC50) was determined as 229 nM.

Regarding `CC(C)(C)OC(=O)N1CCC(N(C(=O)c2cnc(-c3ccc(C(=O)N4CCC[C@@H]4C#N)c(F)c3)nc2)C2CC2)CC1` [Example 161, 4-({2-[4-(2-Cyano-pyrrolidine-1-carbonyl)-3-fluoro-phenyl]-pyrimidine-5-carbonyl}-cyclopropyl-amino)-piperidine-1-carboxylic acid tert-butyl ester], the EC50 worked out at 278 nM.

In turn, `CC(C)(C)OC(=O)N1CCC(N(C(=O)c2cnc(-c3ccc(C(=O)NCc4cncnc4)c(F)c3)nc2)C2CC2)CC1` [Example 162, 4-[Cyclopropyl-(2-{3-fluoro-4-[(pyrimidin-5-ylmethyl)-carbamoyl]-phenyl}-pyrimidine-5-carbonyl)-amino]-piperidine-1-carboxylic acid tert-butyl ester] registered an EC50 of 501 nM.

`CC(C)(C)OC(=O)N1CCC(N(C(=O)c2cnc(-c3ccc(C(=O)N4CCC(C#N)C4)c(F)c3)nc2)C2CC2)CC1` (centres unmarked) [Example 163, 4-({2-[4-(3-Cyano-pyrrolidine-1-carbonyl)-3-fluoro-phenyl]-pyrimidine-5-carbonyl}-cyclopropyl-amino)-piperidine-1-carboxylic acid tert-butyl ester]: a half-maximal effect (EC50) was put at 405 nM.

Take `COC1CCN(C(=O)c2ccc(-c3ncc(C(=O)N(C4CC4)C4CCN(C(=O)OC(C)(C)C)CC4)cn3)cc2F)CC1` [Example 164, 4-(Cyclopropyl-{2-[3-fluoro-4-(4-methoxy-piperidine-1-carbonyl)-phenyl]-pyrimidine-5-carbonyl}-amino)-piperidine-1-carboxylic acid tert-butyl ester]: the EC50 amounted to 221 nM.

`CC(C)(C)OC(=O)N1CCC(N(C(=O)c2cnc(-c3ccc(C(=O)NCc4cccnc4)c(F)c3)nc2)C2CC2)CC1` [Example 165, 4-[Cyclopropyl-(2-{3-fluoro-4-[(pyridin-3-ylmethyl)-carbamoyl]-phenyl}-pyrimidine-5-carbonyl)-amino]-piperidine-1-carboxylic acid tert-butyl ester] yielded an EC50 of 173 nM.

`CN(Cc1cccnc1)C(=O)c1ccc(-c2ncc(C(=O)N(C3CC3)C3CCN(C(=O)OC(C)(C)C)CC3)cn2)c(F)c1` [Example 166, 4-(Cyclopropyl-{2-[2-fluoro-4-(methyl-pyridin-3-ylmethyl-carbamoyl)-phenyl]-pyrimidine-5-carbonyl}-amino)-piperidine-1-carboxylic acid tert-butyl ester]: the EC50 was determined as 359 nM.

Turning to `COCCNC(=O)c1ccc(-c2ncc(C(=O)N(C3CC3)C3CCN(C(=O)OC(C)(C)C)CC3)cn2)cc1F` [Example 167, 4-(Cyclopropyl-{2-[3-fluoro-4-(2-methoxy-ethylcarbamoyl)-phenyl]-pyrimidine-5-carbonyl}-amino)-piperidine-1-carboxylic acid tert-butyl ester], the EC50 worked out at 146 nM.

By EC50 is commonly meant the concentration at which the effect is half-maximal. Lower therefore signals greater potency.
